From patent publication US9738677B2, “Amphotericin B derivative with reduced toxicity” (priority 2014, dated 2017)

Assays:
[1] = tested on: primary human renal proximal tubule epithelial cells; test: WST-8 cell proliferation assay (MTC); format: cell-based; conditions: up to limits of solubility
Procedure: WST-8 Cell Proliferation Assays
Primary human renal proximal tubule epithelial cells (RPTECs) were purchased from ATCC (Manassas, Va.) and immediately cultured upon receipt. Complete growth media was prepared using renal epithelial cell basal medium (ATCC, PCS-400-030), renal epithelial cell growth kit (ATCC, PCS-400-040), and penicillin-streptomycin (10 units/mL and 10 μg/mL). Complete media was stored at 4° C. in the dark and used within 28 days. Primary RPTECs were grown in CO2 incubator at 37° C. with an atmosphere of 95% air/5% CO2.
WST-8 cell proliferation assay kit (Ser. No. 10/010,199) was purchased from Cayman Chemical Company (Ann Arbor, Mich.) and stored at −20° C. and used within 6 months of receipt. WST-8 reagent and electron mediator solution were thawed and mixed to prepare the WST-8 reagent solution. The solution was stored at −20° C. and used within one week.
A suspension of primary RPTECs in complete growth media was brought to a concentration of 1×10^5 cells/mL. A 96-well plate was seeded with 99 μL of the cell suspension and incubated at 37° C. with an atmosphere of 95% air/5% CO2 for 3 hours. Positive and negative controls were prepared by seeding with 100 μL of the cell suspension or 100 μL of the complete media. Compounds were prepared as 5 mM (AmB), 20 mM (C2′deOAmB), and 50 mM (C2′epiAmB) stock solutions in DMSO and serially diluted to the following concentrations with DMSO: 50000, 40000, 30000, 20000, 10000, 8000, 6000, 4000, 3000, 2000, 1500, 1000, 800, 600, 400, 300, 200, 100, 50, 25, 10, 5, 2.5, 1, 0.5, 0.25, and 0.1 μM. 1 μL aliquots of each solution were added to the 96-well plate in triplicate, with each column representing a different concentration of the test compound. The 96-well plate was incubated at 37° C. with an atmosphere of 95% air/5% CO2 for 24 hours. […] Following incubation, the 96-well plate was mixed in a shaking incubator at 200 rpm for 1 minute and absorbances were read at 450 nm using a Biotek H1 Synergy Hybrid Reader (Wanooski, Vt.). […]

C. albicans = test: Mouse model of disseminated candidiasis, kidney fungal burden; format: in vivo; conditions: neutropenic mice, single intraperitoneal 16 mg/kg 2 hours post infection, kidneys at 24 hours post infection
Procedure: FIG. 7 is a bar graph depicting kidney fungal load (colony forming units, CFUs) in neutropenic mice inoculated intravenously with C. albicans, and then treated two hours later with a single intraperitoneal dose of vehicle or 16 mg/kg AmB or C2′epiAmB.
The antifungal efficacy of C2′epiAmB was tested in a mouse model of disseminated candidiasis. In this experiment neutropenic mice were infected with C. albicans via their tail veins, and then 2 hours post infection the mice were treated with a single intraperitoneal injection of 16 mg/kg AmB or C2′epiAmB. Then at 24 hours post infection the mice were sacrificed, and the fungal burden present in their kidneys was quantified.

C[C@@H]1[C@H](O)[C@@H](C)/C=C/C=C/C=C/C=C/C=C/C=C/C=C/[C@H](O[C@@H]2O[C@H](C)[C@@H](O)[C@H](N)[C@H]2O)CC2O[C@](O)(C[C@@H](O)C[C@@H](O)[C@H](O)CC[C@@H](O)C[C@@H](O)CC(=O)O[C@H]1C)C[C@H](O)[C@H]2C(=O)O [C2′epiAmB]
Toxicity to primary human renal proximal tubule epithelial cells (in words) [1]: no evidence of toxicity up to their limits of solubility | Reduction of kidney fungal burden relative to AmB (C. albicans): 0.5 log units
